Patent US12642776B2, “Anticoccidial composition comprising stilbene-based compound, and use thereof” (CJ CHEILJEDANG CORPORATION, priority 2020, dated 2026)
Marks after values point to notes of the source that are not given here.

Legend:
[1] = test system: Eimeria tenella protozoan (sporozoite); test: Direct killing effect against Eimeria tenella protozoan (sporozoite), microscopic count of alive sporozoites; details: for concentration showing death rate of 50% or more against the protozoan: tested 16 to 500 ppm
Procedure: In the present example, protozoan (sporozoite) direct killing ability evaluation was conducted against 1 representative Eimeria kind known to be infected in most farms (E. tenella).
A certain amount of oocysts of each coccidial protozoan was put in a tube containing glass beads and pulverized, and then to remove the crushed oocyst cell wall and other debris, internal sporocysts were purified using the percoll density gradient, and washed with PBS solution. A reagent comprising sodium taurocholic acid (Sigma aldrich, USA) and trypsin (Gibco, USA), respectively, was treated to sporocysts of Eimeria tenella for excystation of the internal sporozoites, and they were incubated, and then they were washed with PBS solution once and the protozoa were obtained.
After reacting the pterostilbene, pinostilbene and anticoccidial agents, diclazuril and gallic acid (hereinafter, material) with the protozoan of Eimeria tenella at various concentrations of 16 to 500 ppm, respectively, only alive protozoa (sporozoites) were counted through microscopic observation.

Eimeria tenella = test: In vivo anticoccidial efficacy evaluation in broilers challenge-inoculated with Eimeria tenella; set-up: species or system Ross broilers; key to ACI: ACI out of 200 points; higher = better; ≥160 very excellent; Lesion index / Oocyst index: scale not given here; details: for Survival rate after challenge inoculation (%): Eimeria tenella-infected broilers, 10,000 oocysts oral, up to 8th day after challenge; for Survival rate after challenge inoculation (%) / BWG after challenge inoculation (g/d) / ACI / Lesion score / Oocyst index / Lesion index / Daily weight gain compared to negative control group (RWG, %): feed with salinomycin 60 ppm, resveratrol 125 ppm or pterostilbene 125 ppm; for BWG after challenge inoculation (g/d) / anticoccidial index: Eimeria tenella-infected broilers; for BWG after challenge inoculation (g/d): before challenge to 7th day after; for anticoccidial index: Table 5; for ACI: anticoccidial index by Equation 2, out of 200 points; for Lesion score: appendix lesion, scale 0-4, 8th day after challenge; for anticoccidial efficacy compared with salinomycin: comparison of anticoccidial index with salinomycin treatment group; for Oocyst index: index from oocyst excretion (%) compared to infected negative control group; for Lesion index: lesion score x 10; for Daily weight gain compared to negative control group (RWG, %): relative to non-infected negative control group
Procedure: An in vivo anticoccidial efficacy evaluation test was performed in an animal experiment facility in Gyeongsangnam-do, South Korea. One-day-old female Ross broilers were individually weighed and randomly divided into groups to use in an experiment. Matters and conditions for experimental design were described in Table 2.
A breeding farm was managed according to the Korean poultry breeding management guidelines. Cages and the breeding farm were cleaned and disinfected before starting the test. The temperature of […] and the humidity of 40 to 50% of the breeding farm were maintained, and it was continuously monitored. General feed was fed according to the nutritional requirements of broilers, and the mixing ratio was described in Table 3.
To the general feed (Table 3), each material (salinomycin (CAS No. 53003-10-4), resveratrol (sigma) or pterostilbene (sigma) was added at a concentration described in Table 4 below, respectively, and was self-mixed.
Antibiotics and supplements were not used in general feed and mixed feed, and no anticoccidial agent other than each material was added. Broilers were fed ad libitum throughout the experiment period. After putting 6 1-day-age broilers in cages randomly placed for each of the control group or test group and breeding, general feed was fed for 14 days, and then the mixed feed prepared above was ingested by dividing by control group or test group.
Coccidiosis induction was performed by oral inoculation (challenge inoculation) in an oral tube type of 10,000 oocysts (eggs) with over 90% mature (sporulation) Eimeria tenella per one individual to 21-day-old broilers.
The anticoccidial efficacy by test group designed in Example 1-2 above was shown as an anticoccidial index (ACI), and the anticoccidial index was calculated by Equation 2 below. The ACI score is out of 200 points, and the higher the ACI score, the more excellent the anticoccidial ability, and when it is 120 points or more to less than 140 points, it is determined that it is effective as an anticoccidial material, and when it is 140 points or more to less than 160 points, it is determined that it is excellent as an anticoccidial material, and when it is 160 points or more, it is determined that the anticoccidial effect is very excellent (Luis Miguel De Pablos et al., Anticoccidial activity of maslinic acid against infection with Eimeria tenella in chickens, Parasitol Res, 2010). Anticoccidial index(ACI)=(survival rate after challenge inoculation (%))+(daily weight gain compared to negative control group(RWG, %))−(lesion score×10)−(fecal oocyst excretion amount index) (Equation 2)
1) Survival rate: the number of dead individuals was recorded daily, and post mortem autopsy was performed to determine a cause of mortality, and the number of individuals who died due to causes other than coccidiosis was excluded. The survival rate (%) up to the 8th day after challenge inoculation was used for anticoccidial index calculation. The measured survival rate was described in Table 5 below.
2) Daily weight gain: body weight was measured for each cage before challenge inoculation with a protozoan into an individual and at the 7th day after challenge inoculation, and the difference was divided by the number of days to calculate the daily weight gain (ADG, g/d). ‘Daily weight gain compared to the negative control group (RWG, %)’ which was calculated by dividing the daily weight gain (ADG, average daily gain; g/d) of each experimental group by the weight gain (ADG, g/d) of the non-infected negative control group and multiplying by 100 was used for anticoccidial index calculation. The daily weight gain (ADG, g/d) measured in each control group and test group and the daily weight gain compared to the negative control group (RWG, %) were shown in Table 5 below.
3) Lesion scoring: On the 8th day after challenge inoculation, an autopsy was conducted for 6 broilers per cage, and the intestines were incised and opened. […]

Row | SMILES | Protozoal death rate by material treatment concentration (%) ([1]; 16 ppm) | Protozoal death rate by material treatment concentration (%) ([1]; 32 ppm) | Protozoal death rate by material treatment concentration (%) ([1]; 62 ppm) | Protozoal death rate by material treatment concentration (%) ([1]; 125 ppm) | Protozoal death rate by material treatment concentration (%) ([1]; 250 ppm) | Protozoal death rate by material treatment concentration (%) ([1]; 500 ppm) | concentration showing death rate of 50% or more against the protozoan [1] [ppm] | Survival rate after challenge inoculation (%) (Eimeria tenella) | BWG after challenge inoculation (g/d) (Eimeria tenella) | anticoccidial index (Eimeria tenella) [points] | ACI (Eimeria tenella) | Lesion score (Eimeria tenella) | anticoccidial efficacy compared with salinomycin (Eimeria tenella) | Oocyst index (Eimeria tenella) | Lesion index (Eimeria tenella) | Daily weight gain compared to negative control group (RWG, %) (Eimeria tenella) [%]
1 | N#CC(c1ccc(Cl)cc1)c1c(Cl)cc(-n2ncc(=O)[nH]c2=O)cc1Cl (stereo not shown) [Diclazuril, diclazuril, reference compound] | 0 | 0 | 0 | 0 | 35 | 44 | – | – | – | – | – | – | – | – | – | –
2 | O=C(O)c1cc(O)c(O)c(O)c1 [Gallic acid, gallic acid, reference compound] | 0 | 0 | 0 | 0 | 26 | 32 | – | – | – | – | – | – | – | – | – | –
3 | COc1cc(O)cc(/C=C/c2ccc(O)cc2)c1 [Pinostilbene, 3-Methoxy-4′,5-dihydroxy-trans-stilbene] | 0 | 0 | 0 | 0 | 50.5 | 61.3 | ≥ 250 | – | – | – | – | – | – | – | – | –
4 | COc1cc(/C=C/c2ccc(O)cc2)cc(OC)c1 [Pterostilbene, 3,5-Dimethoxy-4′-hydroxystilbene] | 33.3 | 63.4 | 74.2 | 100 | 100 | 100 | ≥ 32 | 100 | 389^bc g/d | 151 | 151 | 2.8^b | equivalent or superior | 10 | 28 | 89
5 | Oc1ccc(/C=C/c2cc(O)cc(O)c2)cc1 [Resveratrol] | – | – | – | – | – | – | – | 100 | 381^bcd g/d | 149 | 149 | 2.95 | equivalent or superior | 10 | 29 | 87
6 | CC[C@@H](C(=O)[C@@H](C)[C@@H](O)[C@H](C)[C@@H]1O[C@@H]([C@@H](CC)C(=O)O)CC[C@@H]1C)[C@H]1O[C@]2(C=C[C@@H](O)[C@]3(CC[C@@](C)([C@H]4CC[C@](O)(CC)[C@H](C)O4)O3)O2)[C@H](C)C[C@@H]1C [Salinomycin, salinomycin, reference compound] | – | – | – | – | – | – | – | 100 | 360^cd g/d | 149 | 149 | 2.3^c | – | 10 | 23 | 82
